Assay results as given in patent US7612064B2, “Sulfopyrroles” (Takeda Pharmaceutical Company Limited, priority 2003, dated 2009).

What was measured:
[1] = test system: MRC5; assay: MTS proliferation assay; assay type: cell-based; conditions: MRC5, 72 h
How it was run: (§1)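 Compounds at final 10/3/1/0.3 μM (added in complete medium, ≤5% DMSO); 72 h, culture conditions; + MTS, 3 h; A492.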

[2] = test system: Jily; assay: MTS proliferation assay; assay type: cell-based; conditions: 72 h
How it was run: as §1

[3] = Hoechst 33342 nuclear staining; assay type: cell-based; conditions: for Hoechst 33342 nuclear staining score, H460: H460 cells; for Hoechst 33342 nuclear staining score, HeLa: HeLa cells; for Hoechst 33342 nuclear staining score, Jily: Jily cells; for Hoechst 33342 nuclear staining score, Jurkat: Jurkat cells; for Hoechst 33342 nuclear staining score, MRC5: MRC5 cells; for Hoechst 33342 nuclear staining score, PBLs: key: 0: no activity; 1: weak activity comprising less than 50% of the cells; 2: strong activity comprising more than 50% of the cells;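 for all read-outs here: apoptotic nuclei scored 0 none 1 weak under 50% of cells 2 strong over 50% of cells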
How it was run: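 Cells were plated in 96 well tissue culture plates in 80 μl complete medium, with 3-5*10^3 cells per well for adherent lines and 8-10*10^3 for suspension lines. Adherent cells spread for 24 h before treatment, while suspension cells were treated right after seeding. Compounds were added in 20 μl complete medium containing max 5% DMSO.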

[4] = test system: HeLa; assay: MTS proliferation assay; assay type: cell-based, human; conditions: 72 h
How it was run: as §1

[5] = test system: Jurkat; assay: MTS proliferation assay; assay type: cell-based, human; conditions: 72 h
How it was run: as §1

Row | Structure (SMILES) | IC50 [1] [nM] | IC50 [2] [nM] | Hoechst 33342 nuclear staining score, H460 ([3]; conc 0.1) | Hoechst 33342 nuclear staining score, H460 ([3]; conc 0.3) | Hoechst 33342 nuclear staining score, H460 ([3]; conc 1) | Hoechst 33342 nuclear staining score, H460 ([3]; conc 3) | Hoechst 33342 nuclear staining score, HeLa ([3]; conc 0.1) | Hoechst 33342 nuclear staining score, HeLa ([3]; conc 0.3) | Hoechst 33342 nuclear staining score, HeLa ([3]; conc 1) | Hoechst 33342 nuclear staining score, HeLa ([3]; conc 3) | Hoechst 33342 nuclear staining score, Jily ([3]; conc 0.1) | Hoechst 33342 nuclear staining score, Jily ([3]; conc 0.3) | Hoechst 33342 nuclear staining score, Jily ([3]; conc 1) | Hoechst 33342 nuclear staining score, Jily ([3]; conc 3) | Hoechst 33342 nuclear staining score, Jurkat ([3]; conc 0.1) | Hoechst 33342 nuclear staining score, Jurkat ([3]; conc 0.3) | Hoechst 33342 nuclear staining score, Jurkat ([3]; conc 1) | Hoechst 33342 nuclear staining score, Jurkat ([3]; conc 3) | Hoechst 33342 nuclear staining score, MRC5 ([3]; conc 0.1) | Hoechst 33342 nuclear staining score, MRC5 ([3]; conc 0.3) | further results
1 | COc1cc(-c2cc(-c3cncc(C(=O)NCCN4CCOCC4)c3)cn2S(=O)(=O)c2ccc(C)cc2)cc(OC)c1OC.Cl [Example 64] | < 1000 | < 1000 | 0 | 0 | 2 (strong activity comprising more than 50% of the cells) | 2 (strong activity comprising more than 50% of the cells) | 0 | 0 | 2 (strong activity comprising more than 50% of the cells) | 2 (strong activity comprising more than 50% of the cells) | 0 | 0 | 2 (strong activity comprising more than 50% of the cells) | 2 (strong activity comprising more than 50% of the cells) | 0 | 0 | 2 (strong activity comprising more than 50% of the cells) | 2 (strong activity comprising more than 50% of the cells) | 0 | 0 | Hoechst 33342 nuclear staining score, MRC5 ([3]; conc 1): 2 (strong activity comprising more than 50% of the cells); Hoechst 33342 nuclear staining score, MRC5 ([3]; conc 3): 2 (strong activity comprising more than 50% of the cells); Hoechst 33342 nuclear staining score, PBLs ([3]; conc 0.1): 0; Hoechst 33342 nuclear staining score, PBLs ([3]; conc 0.3): 0; Hoechst 33342 nuclear staining score, PBLs ([3]; conc 1): 0; Hoechst 33342 nuclear staining score, PBLs ([3]; conc 3): 0; IC50 [4]: < 1000 nM; IC50 [5]: < 1000 nM
2 | COc1ccc(S(=O)(=O)n2cc(CNc3ccc(N4CCOCC4)cc3)cc2-c2ccc(OC)cc2OC)cc1 [Example 96] | > 1000 | > 1000 | 0 | 0 | 0 | 0 | 0 | 0 | 0 | 0 | 0 | 0 | 0 | 1 (weak activity comprising less than 50% of the cells) | 0 | 0 | 0 | 0 | 0 | 0 | Hoechst 33342 nuclear staining score, MRC5 ([3]; conc 1): 0; Hoechst 33342 nuclear staining score, MRC5 ([3]; conc 3): 0; Hoechst 33342 nuclear staining score, PBLs ([3]; conc 0.1): 0; Hoechst 33342 nuclear staining score, PBLs ([3]; conc 0.3): 0; Hoechst 33342 nuclear staining score, PBLs ([3]; conc 1): 0; Hoechst 33342 nuclear staining score, PBLs ([3]; conc 3): 0; IC50 [4]: > 1000 nM; IC50 [5]: > 1000 nM
3 | COc1ccc(S(=O)(=O)n2cc(CNc3ccc(N4CCOCC4)cc3)cc2-c2ccccc2OC)cc1 [Example 97] | > 1000 | > 1000 | 0 | 0 | 0 | 0 | 0 | 0 | 0 | 0 | 0 | 0 | 0 | 0 | 0 | 0 | 0 | 0 | 0 | 0 | Hoechst 33342 nuclear staining score, MRC5 ([3]; conc 1): 0; Hoechst 33342 nuclear staining score, MRC5 ([3]; conc 3): 0; Hoechst 33342 nuclear staining score, PBLs ([3]; conc 0.1): 0; Hoechst 33342 nuclear staining score, PBLs ([3]; conc 0.3): 0; Hoechst 33342 nuclear staining score, PBLs ([3]; conc 1): 0; Hoechst 33342 nuclear staining score, PBLs ([3]; conc 3): 0; IC50 [4]: > 1000 nM; IC50 [5]: > 1000 nM
4 | COc1cc(-c2cc(-c3cccnc3)cn2S(=O)(=O)c2ccc(Cl)cc2)cc(OC)c1OC [Example 81] | > 1000 | > 1000 | 0 | 0 | 0 | 2 (strong activity comprising more than 50% of the cells) | 0 | 0 | 0 | 1 (weak activity comprising less than 50% of the cells) | 0 | 0 | 0 | 1 (weak activity comprising less than 50% of the cells) | 0 | 0 | 0 | 2 (strong activity comprising more than 50% of the cells) | 0 | 0 | Hoechst 33342 nuclear staining score, MRC5 ([3]; conc 1): 0; Hoechst 33342 nuclear staining score, MRC5 ([3]; conc 3): 0; Hoechst 33342 nuclear staining score, PBLs ([3]; conc 0.1): 0; Hoechst 33342 nuclear staining score, PBLs ([3]; conc 0.3): 0; Hoechst 33342 nuclear staining score, PBLs ([3]; conc 1): 0; Hoechst 33342 nuclear staining score, PBLs ([3]; conc 3): 0; IC50 [4]: > 1000 nM; IC50 [5]: > 1000 nM
5 | COc1cc(-c2cc(-c3cccnc3)cn2S(=O)(=O)c2ccc3c(c2)CCO3)cc(OC)c1OC [Example 86] | > 1000 | < 1000 | 0 | 0 | 0 | 2 (strong activity comprising more than 50% of the cells) | 0 | 0 | 0 | 1 (weak activity comprising less than 50% of the cells) | 0 | 0 | 1 (weak activity comprising less than 50% of the cells) | 2 (strong activity comprising more than 50% of the cells) | 0 | 0 | 2 (strong activity comprising more than 50% of the cells) | 2 (strong activity comprising more than 50% of the cells) | 0 | 0 | Hoechst 33342 nuclear staining score, MRC5 ([3]; conc 1): 0; Hoechst 33342 nuclear staining score, MRC5 ([3]; conc 3): 1 (weak activity comprising less than 50% of the cells); Hoechst 33342 nuclear staining score, PBLs ([3]; conc 0.1): 0; Hoechst 33342 nuclear staining score, PBLs ([3]; conc 0.3): 0; Hoechst 33342 nuclear staining score, PBLs ([3]; conc 1): 0; Hoechst 33342 nuclear staining score, PBLs ([3]; conc 3): 0; IC50 [4]: > 1000 nM; IC50 [5]: < 1000 nM
